Laboratory results: the supplement of paper PMC10307832

How the values were obtained:
Assay in all cases: relative viability (nuclei count vs DMSO), 5 days (fraction); higher = more cells survive
[1] = compound: Cn1c(Nc2ccc(C(F)(F)F)cc2)nc2cc(Oc3ccnc(-c4ncc(C(F)(F)F)[nH]4)c3)ccc21 [RAF265] + CC(=O)c1c(C)c2cnc(Nc3ccc(N4CCNCC4)cn3)nc2n(C2CCCC2)c1=O [Palbociclib] (partner 0.5 µM)
How it was run: (§1)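 Lung cancer cell lines in 1536-well plates got either a single drug or a fixed anchor-drug dose together with five library-drug doses (not always all listed) in √10 steps, by pin tool, on the day after seeding. Nuclei were counted after 5 days, and relative viability is the treated-to-vehicle ratio of nuclei counts. Values are medians of duplicate plates.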

[2] = compound: C1=CC=C2C(=C1)C=CC(=C2SSC3=C(C=CC4=CC=CC=C43)O)O [IPA-3] + NC(=O)Nc1cc(-c2cccc(F)c2)sc1C(=O)N[C@H]1CCCNC1 [AZD7762] (partner 0.2 µM)
How it was run: as §1

[3] = compound: Cc1ccc(-n2nc(C(C)(C)C)cc2NC(=O)Nc2ccc(OCCN3CCOCC3)c3ccccc23)cc1 [Doramapimod] + CC(=O)c1c(C)c2cnc(Nc3ccc(N4CCNCC4)cn3)nc2n(C2CCCC2)c1=O [Palbociclib] (partner 0.5 µM)
How it was run: as §1

[4] = compound: Cc1ccc(-n2nc(C(C)(C)C)cc2NC(=O)Nc2ccc(OCCN3CCOCC3)c3ccccc23)cc1 [Doramapimod] + C[C@]1(O)C[C@@H](c2nc(-c3ccc4ccc(-c5ccccc5)nc4c3)c3c(N)nccn32)C1 [Linsitinib] (partner 1 µM)
How it was run: as §1

For NCI-H322M, the relative viability ([1]; first compound 0.01 µM) was 0.474, the relative viability ([1]; first compound 0.03162 µM) was 0.498 and the relative viability ([1]; first compound 0.1 µM) was 0.425. For the same cell line, the relative viability ([1]; first compound 0.3162 µM) was 0.381, the relative viability ([1]; first compound 1 µM) was 0.326 and the relative viability ([2]; first compound 0.2 µM) was 0.503. The relative viability ([2]; first compound 0.6325 µM) was 0.6, the relative viability ([2]; first compound 2 µM) was 0.616 and the relative viability ([2]; first compound 6.325 µM) was 0.808. For the same cell line, the relative viability ([2]; first compound 20 µM) was 0.786, the relative viability ([3]; first compound 0.02 µM) was 0.458 and the relative viability ([3]; first compound 0.06325 µM) was 0.492. It also gave a relative viability ([3]; first compound 0.2 µM) of 0.483, a relative viability ([3]; first compound 0.6325 µM) of 0.554 and a relative viability ([3]; first compound 2 µM) of 0.486. It also gave a relative viability ([4]; first compound 0.02 µM) of 0.851, a relative viability ([4]; first compound 0.06325 µM) of 0.834 and a relative viability ([4]; first compound 0.2 µM) of 0.909. The relative viability ([4]; first compound 0.6325 µM) was 1.01 and the relative viability ([4]; first compound 2 µM) was 0.874.

With NCI-H358 the relative viability ([1]; first compound 0.01 µM) was 0.129, the relative viability ([1]; first compound 0.03162 µM) was 0.117 and the relative viability ([1]; first compound 0.1 µM) was 0.116. It also gave a relative viability ([1]; first compound 0.3162 µM) of 0.129, a relative viability ([1]; first compound 1 µM) of 0.124 and a relative viability ([2]; first compound 0.2 µM) of 0.618. It also gave a relative viability ([2]; first compound 0.6325 µM) of 0.566, a relative viability ([2]; first compound 2 µM) of 0.5 and a relative viability ([2]; first compound 6.325 µM) of 0.508. It also gave a relative viability ([2]; first compound 20 µM) of 0.48, a relative viability ([3]; first compound 0.02 µM) of 0.153 and a relative viability ([3]; first compound 0.06325 µM) of 0.137. For the same cell line, the relative viability ([3]; first compound 0.2 µM) was 0.138, the relative viability ([3]; first compound 0.6325 µM) was 0.195 and the relative viability ([3]; first compound 2 µM) was 0.133. For the same cell line, the relative viability ([4]; first compound 0.02 µM) was 0.68, the relative viability ([4]; first compound 0.06325 µM) was 0.598 and the relative viability ([4]; first compound 0.2 µM) was 0.611. It also gave a relative viability ([4]; first compound 0.6325 µM) of 0.722 and a relative viability ([4]; first compound 2 µM) of 0.667.

Cell Line NCI-H441 has a relative viability ([1]; first compound 0.01 µM) of 0.212, a relative viability ([1]; first compound 0.03162 µM) of 0.237 and a relative viability ([1]; first compound 0.1 µM) of 0.233. It also gave a relative viability ([1]; first compound 0.3162 µM) of 0.171, a relative viability ([1]; first compound 1 µM) of 0.183 and a relative viability ([2]; first compound 0.2 µM) of 1.32. For the same cell line, the relative viability ([2]; first compound 0.6325 µM) was 0.972, the relative viability ([2]; first compound 2 µM) was 1.33 and the relative viability ([2]; first compound 6.325 µM) was 1.21. For the same cell line, the relative viability ([2]; first compound 20 µM) was 1.22, the relative viability ([3]; first compound 0.02 µM) was 0.197 and the relative viability ([3]; first compound 0.06325 µM) was 0.221. The relative viability ([3]; first compound 0.2 µM) was 0.203, the relative viability ([3]; first compound 0.6325 µM) was 0.191 and the relative viability ([3]; first compound 2 µM) was 0.219. It also gave a relative viability ([4]; first compound 0.02 µM) of 0.528, a relative viability ([4]; first compound 0.06325 µM) of 0.512 and a relative viability ([4]; first compound 0.2 µM) of 0.541. It also gave a relative viability ([4]; first compound 0.6325 µM) of 0.553 and a relative viability ([4]; first compound 2 µM) of 0.442.

NCI-H460 was tested, and the relative viability ([1]; first compound 0.01 µM) was 0.203, the relative viability ([1]; first compound 0.03162 µM) was 0.203 and the relative viability ([1]; first compound 0.1 µM) was 0.171. It also gave a relative viability ([1]; first compound 0.3162 µM) of 0.2, a relative viability ([1]; first compound 1 µM) of 0.0711 and a relative viability ([2]; first compound 0.2 µM) of 0.756. It also gave a relative viability ([2]; first compound 0.6325 µM) of 0.704, a relative viability ([2]; first compound 2 µM) of 0.632 and a relative viability ([2]; first compound 6.325 µM) of 0.7. For the same cell line, the relative viability ([2]; first compound 20 µM) was 0.634, the relative viability ([3]; first compound 0.02 µM) was 0.197 and the relative viability ([3]; first compound 0.06325 µM) was 0.195. The relative viability ([3]; first compound 0.2 µM) was 0.208, the relative viability ([3]; first compound 0.6325 µM) was 0.279 and the relative viability ([3]; first compound 2 µM) was 0.141. The relative viability ([4]; first compound 0.02 µM) was 0.71, the relative viability ([4]; first compound 0.06325 µM) was 0.736 and the relative viability ([4]; first compound 0.2 µM) was 0.733. The relative viability ([4]; first compound 0.6325 µM) was 0.875 and the relative viability ([4]; first compound 2 µM) was 0.641.

For NCI-H647, the relative viability ([1]; first compound 0.01 µM) was 0.335, the relative viability ([1]; first compound 0.03162 µM) was 0.401 and the relative viability ([1]; first compound 0.1 µM) was 0.196. The relative viability ([1]; first compound 0.3162 µM) was 0.228, the relative viability ([1]; first compound 1 µM) was 0.218 and the relative viability ([2]; first compound 0.2 µM) was 0.675. It also gave a relative viability ([2]; first compound 0.6325 µM) of 0.408, a relative viability ([2]; first compound 2 µM) of 0.555 and a relative viability ([2]; first compound 6.325 µM) of 0.402. For the same cell line, the relative viability ([2]; first compound 20 µM) was 0.0953, the relative viability ([3]; first compound 0.02 µM) was 0.346 and the relative viability ([3]; first compound 0.06325 µM) was 0.335. The relative viability ([3]; first compound 0.2 µM) was 0.375, the relative viability ([3]; first compound 0.6325 µM) was 0.404 and the relative viability ([3]; first compound 2 µM) was 0.345. The relative viability ([4]; first compound 0.02 µM) was 1.22, the relative viability ([4]; first compound 0.06325 µM) was 1.24 and the relative viability ([4]; first compound 0.2 µM) was 1.15. For the same cell line, the relative viability ([4]; first compound 0.6325 µM) was 1.03 and the relative viability ([4]; first compound 2 µM) was 1.04.

NCI-H650 was tested, and the relative viability ([1]; first compound 0.01 µM) was 0.306, the relative viability ([1]; first compound 0.03162 µM) was 0.345 and the relative viability ([1]; first compound 0.1 µM) was 0.303. The relative viability ([1]; first compound 0.3162 µM) was 0.232, the relative viability ([1]; first compound 1 µM) was 0.206 and the relative viability ([2]; first compound 0.2 µM) was 1.1. For the same cell line, the relative viability ([2]; first compound 0.6325 µM) was 1.01, the relative viability ([2]; first compound 2 µM) was 1.08 and the relative viability ([2]; first compound 6.325 µM) was 0.935. The relative viability ([2]; first compound 20 µM) was 1.08, the relative viability ([3]; first compound 0.02 µM) was 0.368 and the relative viability ([3]; first compound 0.06325 µM) was 0.341. It also gave a relative viability ([3]; first compound 0.2 µM) of 0.395, a relative viability ([3]; first compound 0.6325 µM) of 0.343 and a relative viability ([3]; first compound 2 µM) of 0.345. For the same cell line, the relative viability ([4]; first compound 0.02 µM) was 0.93, the relative viability ([4]; first compound 0.06325 µM) was 1.03 and the relative viability ([4]; first compound 0.2 µM) was 1.08. For the same cell line, the relative viability ([4]; first compound 0.6325 µM) was 0.923 and the relative viability ([4]; first compound 2 µM) was 0.785.

For NCI-H727, the relative viability ([1]; first compound 0.01 µM) was 0.684, the relative viability ([1]; first compound 0.03162 µM) was 0.626 and the relative viability ([1]; first compound 0.1 µM) was 0.692. It also gave a relative viability ([1]; first compound 0.3162 µM) of 0.611, a relative viability ([1]; first compound 1 µM) of 0.602 and a relative viability ([2]; first compound 0.2 µM) of 0.652. It also gave a relative viability ([2]; first compound 0.6325 µM) of 0.604, a relative viability ([2]; first compound 2 µM) of 0.674 and a relative viability ([2]; first compound 6.325 µM) of 0.617. The relative viability ([2]; first compound 20 µM) was 0.706, the relative viability ([3]; first compound 0.02 µM) was 0.603 and the relative viability ([3]; first compound 0.06325 µM) was 0.639. For the same cell line, the relative viability ([3]; first compound 0.2 µM) was 0.656, the relative viability ([3]; first compound 0.6325 µM) was 0.705 and the relative viability ([3]; first compound 2 µM) was 0.692. It also gave a relative viability ([4]; first compound 0.02 µM) of 0.166, a relative viability ([4]; first compound 0.06325 µM) of 0.221 and a relative viability ([4]; first compound 0.2 µM) of 0.366. It also gave a relative viability ([4]; first compound 0.6325 µM) of 0.317 and a relative viability ([4]; first compound 2 µM) of 0.278.

SW 900 showed a relative viability ([1]; first compound 0.01 µM) of 0.582, a relative viability ([1]; first compound 0.03162 µM) of 0.558 and a relative viability ([1]; first compound 0.1 µM) of 0.519. For the same cell line, the relative viability ([1]; first compound 0.3162 µM) was 0.396, the relative viability ([1]; first compound 1 µM) was 0.237 and the relative viability ([2]; first compound 0.2 µM) was 0.823. The relative viability ([2]; first compound 0.6325 µM) was 0.64, the relative viability ([2]; first compound 2 µM) was 0.631 and the relative viability ([2]; first compound 6.325 µM) was 0.605. It also gave a relative viability ([2]; first compound 20 µM) of 0.786, a relative viability ([3]; first compound 0.02 µM) of 0.57 and a relative viability ([3]; first compound 0.06325 µM) of 0.537. For the same cell line, the relative viability ([3]; first compound 0.2 µM) was 0.558, the relative viability ([3]; first compound 0.6325 µM) was 0.584 and the relative viability ([3]; first compound 2 µM) was 0.531.
